# Results published in patent publication US20130022974A1, “DNA METHYLATION PROFILES IN CANCER” (THE REGENTS OF THE UNIVERSITY OF MICHIGAN, priority 2011, published 2013).
# Entries after “also recorded” stand apart in the source; their conditions may differ.
# Legend:
# LNCaP cells [1] = assay: Expression profiling of 5-Aza treated LNCaP cells (Agilent 44K array, one-class SAM); format: cell-based, human; settings: 6 μM 5-Aza for 4 or 6 days vs DMSO, 5% false discovery rate, number of methylated genes on the array
# Description: Significance analysis of microarray (SAM) (Tusher et al. Proc Natl Acad Sci USA 98: 5116-5121 2001) was performed on the gene expression dataset obtained from 5-Aza and DMSO-treated LNCaP cells by selecting genes that were methylated in LNCaP. From 1,171 methylated genes from LNCaP M-NGS (Table 1), a total of 973 genes were mapped to Agilent expression profiling data. One-class SAM analysis was done using default settings and significant genes were calculated with a false discovery rate (FDR) of 0.05.
# For 5-Aza stimulation experiments, LNCaP cells cultured in RPMI 1640 were treated with vehicle, dimethyl sulfoxide (DMSO) or 6 μM 5-Aza for 4 or 6 days in duplicates. Total RNA was isolated with Trizol (Life Technologies, Carlsbad, Calif.) and further purified using RNAeasy Micro Kit (Qiagen, Valencia, Calif.) according to the manufacturer's instructions. Expression profiling was performed using the Agilent 44K expression array. One microgram of total RNA was converted to cRNA and then labeled according to the manufacturer's protocol (Agilent). Hybridizations were performed for 16 h at 65° C. Scanned images from Agilent microarray scanner were analyzed and extracted using Agilent Feature Extraction Software 9.1.3.1 with linear and lowess normalization performed for each array. […]
# LNCaP cells [2] = assay: Quantitative real time PCR of transcript variants in 5-Aza treated LNCaP cells; format: cell-based, human; settings: 5-Aza treatment vs DMSO
# Description: Total RNA was isolated from cells using RNeasy mini kit (Qiagen, Valencia, Calif.) according to manufacturer's instructions. A DNAseI treatment step was included during the total RNA isolation procedure to remove genomic DNA from the samples. One microgram of total RNA was used in cDNA synthesis using Superscript III reverse transcriptase (Invitrogen, Carlsbad, Calif.). Quantitative real time PCR (QPCR) was performed on prostate cell line cDNA samples using SYBR Green Mastermix (Applied Biosystems) on an Applied Biosystems 7900 Real Time PCR system as described (Tomlins et al. 2007, Nat Genet 39: 41-51). GAPDH primers sequences were as described (Vandesompele et al. 2002, Genome Biol 3: RESEARCH0034). The amount of target transcript and GAPDH in each sample was normalized by standard ddCt methodology, and then to the reference PrEC or DMSO-treated LNCaP samples accordingly.
# For 5-Aza stimulation experiments, LNCaP cells cultured in RPMI 1640 were treated with vehicle, dimethyl sulfoxide (DMSO) or 6 μM 5-Aza for 4 or 6 days in duplicates. Total RNA was isolated with Trizol (Life Technologies, Carlsbad, Calif.) and further purified using RNAeasy Micro Kit (Qiagen, Valencia, Calif.) according to the manufacturer's instructions. Expression profiling was performed using the Agilent 44K expression array. One microgram of total RNA was converted to cRNA and then labeled according to the manufacturer's protocol (Agilent). Hybridizations were performed for 16 h at 65° C. Scanned images from Agilent microarray scanner were analyzed and extracted using Agilent Feature Extraction Software 9.1.3.1 with linear and lowess normalization performed for each array. A total of 4 hybridizations were performed including two 4 day and two 6 day 5-Aza treated samples (Cy5) against control DMSO-treated samples (Cy3). The accession number for gene expression dataset in the GEO database is GSE27619.
compound,measurement,setting,value
"Nc1ncn([C@H]2C[C@H](O)[C@@H](CO)O2)c(=O)n1 [5-Aza, 5-Aza-2′-deoxycytidine]",upregulation of LNCaP methylated genes (SAM),LNCaP cells [1],246 out of 973
same,re-expression of CpG-methylated APC variant-2 and -3,LNCaP cells [2],preferentially re-expressed; also recorded: re-expression
same,re-expression of CpG-methylated NDRG2 variants 1-4,LNCaP cells [2],preferentially re-expressed; also recorded: re-expression
same,re-expression of CpG-methylated RASSF1 variant-1 transcript,LNCaP cells [2],preferential re-expression
